Laboratory results: publication PMC4737155 (Nucleic Acids Research, 2015)

Key:
Assay in all cases: biochemical
[1] = biological target: T1, SaTrm10 (Sulfolobus acidocaldarius, UniProt Q4J894)
T1 sequence (Q4J894 1-292): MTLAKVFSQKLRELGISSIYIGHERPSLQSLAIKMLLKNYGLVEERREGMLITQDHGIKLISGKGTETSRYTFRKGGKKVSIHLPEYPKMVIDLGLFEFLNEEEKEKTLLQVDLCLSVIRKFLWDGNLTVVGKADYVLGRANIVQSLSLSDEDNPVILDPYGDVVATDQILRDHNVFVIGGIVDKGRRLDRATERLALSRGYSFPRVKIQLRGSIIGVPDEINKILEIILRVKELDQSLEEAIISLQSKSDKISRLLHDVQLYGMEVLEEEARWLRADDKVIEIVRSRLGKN

[2] = biological target: SaTrm10 (Sulfolobus acidocaldarius, UniProt Q4J894, D220N)
[3] = biological target: SaTrm10 (Sulfolobus acidocaldarius, UniProt Q4J894, D184N)
Sequence of SaTrm10 (Sulfolobus acidocaldarius, UniProt Q4J894, D184N) (Q4J894 whole entry D184N): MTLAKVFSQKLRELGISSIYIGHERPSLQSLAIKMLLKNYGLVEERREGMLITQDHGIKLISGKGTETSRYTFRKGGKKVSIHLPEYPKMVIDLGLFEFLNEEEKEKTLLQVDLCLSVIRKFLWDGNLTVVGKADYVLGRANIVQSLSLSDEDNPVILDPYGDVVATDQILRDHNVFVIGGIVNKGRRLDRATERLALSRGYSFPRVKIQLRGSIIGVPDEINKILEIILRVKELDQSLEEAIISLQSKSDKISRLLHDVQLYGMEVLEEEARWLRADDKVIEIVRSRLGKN

Sequence of SaTrm10 (Sulfolobus acidocaldarius, UniProt Q4J894, D220N) (Q4J894 whole entry D220N): as the sequence (Q4J894 whole entry D184N) above, with N184D, D220N counted along it

Question: `C[S+](CC[C@H](N)C(=O)O)C[C@H]1O[C@@H](n2cnc3c(N)ncnc32)[C@H](O)[C@@H]1O` (stereo partly drawn) [S-adenosyl methionine] was tested. Which Kd [1] did it give?
Answer: The Kd was 33 ± 4 µM.

Question: And the Kd [2]?
Answer: The Kd was 47 ± 8 µM.

Question: What about the Kd [3] of the same molecule?
Answer: Its Kd is 28 ± 5 µM.
